Test results published in patent US9890126B2 (priority 2012, dated 2018).
Marks after values point to notes of the source that are not given here.

Tested on: Burkholderia
Conditions: cells printing symbol L

Row | SMILES | % Growth Inhibition Endpoint (24 h)
1 | Oc1ccc(-c2cncn2Cc2cccc(Cl)c2)cc1 [HGN-0090] | L^c
2 | Oc1ccc(-c2cncn2Cc2ccccc2Cl)cc1 [HGN-0091] | L^c
3 | Oc1ccc(-c2cncn2Cc2ccc(Cl)cc2)cc1 [HGN-0094] | L^c
4 | Oc1ccc(-c2cncn2CCc2ccccc2Cl)cc1 [HGN-0096] | L^c
5 | Oc1ccc(-c2cncn2CCc2ccc(Cl)c(Cl)c2)cc1 [HGN-0100] | L^c

Same assay, conditions: concentration not given

Row | SMILES | inhibition against Burkholderia
6 | Oc1ccc(-c2cncn2CCc2ccc(F)cc2)cc1 [HGN-0095] | 88.3%

Same assay, conditions: relative to DMSO control; 0.00 = growth with inhibitor equal to or greater than DMSO control

Row | SMILES | % Growth Inhibition Endpoint (24 h) | % Growth Inhibition Growth Curve
7 | Oc1ccc(-c2cncn2CCc2c(Cl)cccc2Cl)cc1 [HGN0098] | 0.00^b % | –
8 | NC(=O)c1c[nH]nc1NC(=O)c1cncs1 [HGN-0004] | 0.00^b % | –
9 | Nc1ccn([C@@H]2O[C@H](CNC(=O)c3cn4ccsc4n3)[C@@H](O)[C@H]2O)c(=O)n1 [HGN-0006] | 0.00^b % | –
10 | Nc1ccn([C@@H]2O[C@H](CNC(=O)c3ccnc4nc[nH]c34)[C@@H](O)[C@H]2O)c(=O)n1 [HGN-0007] | 0.00^b % | –
11 | Nc1ccn([C@@H]2O[C@H](CNC(=O)c3cscn3)[C@@H](O)[C@H]2O)c(=O)n1 [HGN-0008] | 0.00^b % | –
12 | NC(=O)c1c[nH]nc1NC(=O)Cc1cn2ccsc2n1 [HGN-0009] | 0.00^b % | –
13 | NC(=O)c1c[nH]nc1NC(=O)c1cnc2sccn12 [HGN-0010] | 7.22 ± 4.24% | –
14 | O=C([O-])c1cnc(Nc2ccc(Br)cc2)nc1[O-].[Na+].[Na+] [HGN-0014] | 15.52 ± 0.41% | –
15 | CCOC(=O)c1cnc(Nc2ccc(-c3ccncc3)cc2)[nH]c1=O [HGN-0015] | – | 14.43 ± 2.38%
16 | CCOC(=O)c1cnc(NCC2CCCO2)[nH]c1=O (centres unmarked) [HGN-0017, ethyl 6-oxo-2-(((tetrahydrofuran-2-yl)methyl)amino)-1,6-dihydropyrimidine-5-carboxylate] | – | 0.00^b %
17 | Oc1ccc(-c2cncn2CCc2ccccc2)cc1 [HGN-0022] | 0.00^b % | –
18 | Cn1cncc1C(O)c1ccccc1 (centres unmarked) [HGN-0031] | – | 0.00^b %
19 | CCOC(=O)c1cnc(Nc2ccc(-c3ccccc3)cc2)[nH]c1=O [HGN-0033, ethyl 2-((1,1′-biphenyl)-4-ylamino)-6-oxo-1,6-dihydropyrimidine-5-carboxylate] | 5.07 ± 2.01% | –
20 | CCOC(=O)c1cnc(Nc2ccc(N3CCCCC3)cc2)[nH]c1=O [HGN-0034, ethyl 6-oxo-2-((4-(piperidin-1-yl)phenyl)amino)-1,6-dihydropyrimidine-5-carboxylate] | 86.20 ± 0.16% | –
21 | O=C([O-])c1cnc(Nc2ccc(N3CCCCC3)cc2)nc1[O-].[Na+].[Na+] [HGN-0036] | 22.38 ± 21.24% | –
22 | O=C([O-])c1cnc(Nc2cccc(-c3ccccc3)c2)nc1[O-].[Na+].[Na+] [HGN-0044, Sodium 2-([1,1′-biphenyl]-3-ylamino)-4-oxidopyrimidine-5-carboxylate] | 1.48 ± 7.90% | –
23 | CCOC(=O)c1cnc(NCc2ccco2)[nH]c1=O [HGN-0047, Ethyl 2-((furan-2-ylmethyl)amino)-6-oxo-1,6-diydropyrimidine-5-carboxylate] | 0.00^b % | –
24 | O=C([O-])c1cnc(NCC2CCCO2)nc1[O-].[Na+].[Na+] (centres unmarked) [HGN-0050] | 32.99 ± 9.22% | –
25 | Oc1ccc(-c2cncn2Cc2ccc(Cl)c(Cl)c2)cc1 [HGN-0092] | 25.41 ± 2.79% | –
26 | Oc1ccc(-c2cncn2Cc2ccc(F)cc2)cc1 [HGN-0093] | 58.12 ± 2.17% | –
27 | Oc1ccc(-c2cncn2CCc2ccc(F)cc2)cc1 [HGN-0095] | 88.27 ± 0.48% | –
28 | Oc1ccc(-c2cncn2CCc2cccc(F)c2)cc1 [HGN-0097] | 4.27 ± 14.54% | –
29 | Oc1ccc(-c2cncn2CCc2ccc(Cl)cc2Cl)cc1 [HGN-0099] | 0.00^b % | –
